According to ChEMBL document CHEMBL1201862, “PubChem BioAssay data set” (2004):
Active and inactive are the calls of the source.

Legend:
[1] = target: G-protein coupled receptor 35 (Homo sapiens, UniProt Q9HC97); test: GPR35 antagonists blocking zaprinast-driven arrestin recruitment, primary screen, imaging, U2OS, beta-arrestin-GFP, zaprinast agonist (AID 2058); assay type: functional;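 also: antagonist potency meaning inhibition of agonist-induced arrestin redistribution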
[2] = inhibitors of firefly luciferase expression or activity, dose response, H4 neuroglioma cells, luminescence (AID 1990); assay type: functional, cell-based
[3] = Luminescence Cell-Based Dose Response HTS to Identify Inhibitors of 5'UTR Stem-Loop Driven Prion Protein mRNA Translation in H4 Neuroglioblastoma Cells. [Related pubchem assays: 1827 (Project Summary), 1813 (Primary HTS)]; assay type: functional
Beta-galactosidase = Beta-galactosidase (Escherichia coli, UniProt Q8VNN2); test: PubChem AID 485352; assay type: functional
[4] = inhibitors of SNCA 5'UTR-driven reporter translation, confirmation, H4 neuroglioma cells, luminescence (AID 1988); assay type: functional, cell-based
Streptococcus = test: Luminescence Microorganism-Based Dose Response Follow up to Identify Compounds Cytotoxic to Streptococcus. [Related pubchem assays: 1677 (Project Summary), 1915, 1914, 1902 (Retest at Dose), 1900 (Counter Screen), 1662 (Primary HTS)]; assay type: functional, organism-based
Large T antigen = Large T antigen (Simian virus 40, UniProt P03070); assay type: functional, Betapolyomavirus macacae;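 also: Confirmatory-stage PubChem screen for compounds that inhibit SV40 T antigen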
[5] = target: T1, Type-1 angiotensin II receptor (Homo sapiens, UniProt P30556); test: AT1 receptor antagonists, dose response, selectivity assay for APJ receptor antagonist project, cell-based, uHTS hits (AID 463214); assay type: functional;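 also: antagonist potency against angiotensin II stimulated AT1 response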
T1 sequence (P30556 whole entry): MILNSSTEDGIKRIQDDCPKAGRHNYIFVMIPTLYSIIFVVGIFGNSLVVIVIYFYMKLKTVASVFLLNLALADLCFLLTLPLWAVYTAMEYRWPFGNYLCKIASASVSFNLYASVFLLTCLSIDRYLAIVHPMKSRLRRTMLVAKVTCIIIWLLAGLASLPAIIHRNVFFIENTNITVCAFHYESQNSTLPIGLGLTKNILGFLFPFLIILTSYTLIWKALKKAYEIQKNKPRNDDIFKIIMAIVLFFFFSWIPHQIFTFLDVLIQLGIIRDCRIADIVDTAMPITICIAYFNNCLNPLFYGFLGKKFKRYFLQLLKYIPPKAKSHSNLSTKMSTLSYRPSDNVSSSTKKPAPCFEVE

CHO = test: cytotoxicity in TLR9-MyD88 CHO cells, dose response, cytotoxicity control for TLR9-MyD88 binding inhibitor project, cell-based, luminescence (AID 588339); assay type: functional, hamster; details: Cricetulus griseus;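 also: CHO cells stably coexpressing TLR9 and MyD88 fusions from primary screen; compound exposure lasted 48 hours before viability readout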
[6] = target: T2, High affinity choline transporter 1 (Homo sapiens, UniProt Q9GZV3); test: CHT inhibitors, dose response, cell-based, 5-point CRC, membrane potential dye (AID 504840); assay type: functional
T2 sequence (Q9GZV3 whole entry): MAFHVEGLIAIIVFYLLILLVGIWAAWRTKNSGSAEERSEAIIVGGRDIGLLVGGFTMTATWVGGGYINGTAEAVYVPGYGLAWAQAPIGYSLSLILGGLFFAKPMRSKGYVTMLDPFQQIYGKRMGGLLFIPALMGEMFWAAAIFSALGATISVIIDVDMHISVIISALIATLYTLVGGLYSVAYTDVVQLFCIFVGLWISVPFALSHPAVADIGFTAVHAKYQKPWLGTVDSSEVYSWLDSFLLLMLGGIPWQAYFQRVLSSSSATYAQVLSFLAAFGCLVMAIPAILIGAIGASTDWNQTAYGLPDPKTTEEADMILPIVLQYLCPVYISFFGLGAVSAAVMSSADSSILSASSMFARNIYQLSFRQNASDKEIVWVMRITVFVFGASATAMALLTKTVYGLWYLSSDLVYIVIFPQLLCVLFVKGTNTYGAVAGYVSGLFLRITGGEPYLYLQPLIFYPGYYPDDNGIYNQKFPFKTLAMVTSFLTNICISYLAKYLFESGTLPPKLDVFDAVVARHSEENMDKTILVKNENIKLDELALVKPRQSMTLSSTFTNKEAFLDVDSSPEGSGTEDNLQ

[7] = Shn3 3'UTR reporter inhibitors, dose response, cell-based, Clone20 osteoblasts, firefly luciferase, cherry-picked (AID 624132); assay type: functional;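 also: firefly luciferase luminescence from reporter carrying the Shn3 3'UTR in osteoblasts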
[8] = control 3'UTR Renilla luciferase suppression, dose response, counter-screen for Shn3 inhibitor project, cell-based, Clone20-Shn3RL, cherry-picked (AID 624133); assay type: functional
[9] = nonselective inhibitors of cellular cAMP signaling, dose response, counter-screen for MC4R biased antagonist project, cell-based, TR-FRET cAMP detection (AID 602305); assay type: functional;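 also: U2OS cells stimulated with forskolin near its EC80 as the cAMP inducer; potency is for inhibition of forskolin-stimulated cAMP signaling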
Fatty acid synthase = Fatty acid synthase (Homo sapiens, UniProt P49327); test: FAS thioesterase domain inhibitors, dose response, biochemical, endpoint fluorescence intensity, uHTS hits (AID 624327); assay type: functional;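 also: fluorescence from hydrolysis of an O-methyl fluorescein acyl ester substrate by the enzyme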
Paired box protein Pax-8 = Paired box protein Pax-8 (Homo sapiens, UniProt Q06710); test: inhibitors of PAX8-driven TPO luciferase reporter, dose response, RMG-I cells, cherry-pick (AID 687027); assay type: functional, cell-based;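 also: luciferase reporter driven by Pax8 target thyroperoxidase promoter measured by SteadyGlo luminescence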
[10] = non-specific cell cytotoxicity, dose response, cytotoxicity control for PAX8 inhibitor project, plate reader, dry powder samples (AID 743021); assay type: functional, cell-based
[11] = target: T3, Zinc finger protein mex-5 (Caenorhabditis elegans, UniProt Q9XUB2); test: MEX-5/TCR-2 RNA interaction inhibitors, dose response, biochemical, C. elegans, fluorescence polarization (AID 1960)
T3 sequence (Q9XUB2 whole entry): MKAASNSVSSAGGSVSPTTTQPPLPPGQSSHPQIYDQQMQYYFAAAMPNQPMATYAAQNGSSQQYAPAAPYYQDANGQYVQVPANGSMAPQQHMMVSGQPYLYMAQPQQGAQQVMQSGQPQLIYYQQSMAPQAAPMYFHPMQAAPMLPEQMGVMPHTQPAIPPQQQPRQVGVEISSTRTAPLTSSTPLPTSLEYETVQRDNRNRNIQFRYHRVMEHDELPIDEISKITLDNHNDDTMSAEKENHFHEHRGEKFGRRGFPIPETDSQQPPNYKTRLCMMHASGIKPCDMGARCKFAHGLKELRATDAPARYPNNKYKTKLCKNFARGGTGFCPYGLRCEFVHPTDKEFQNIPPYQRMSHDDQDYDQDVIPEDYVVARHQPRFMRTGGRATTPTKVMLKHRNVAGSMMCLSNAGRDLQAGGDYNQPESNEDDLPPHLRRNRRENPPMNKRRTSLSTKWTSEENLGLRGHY

[12] = test system: Streptococcus sp. 'group A'; test: growth inhibition of control SK(-) GAS strain, dose response, counter-screen for streptokinase expression inhibitor project, luminescence, kanamycin, BacTiterGlo, confirmation (AID 1900); assay type: functional, organism-based

Chain of Paired box protein Pax-8 (Q06710 whole entry): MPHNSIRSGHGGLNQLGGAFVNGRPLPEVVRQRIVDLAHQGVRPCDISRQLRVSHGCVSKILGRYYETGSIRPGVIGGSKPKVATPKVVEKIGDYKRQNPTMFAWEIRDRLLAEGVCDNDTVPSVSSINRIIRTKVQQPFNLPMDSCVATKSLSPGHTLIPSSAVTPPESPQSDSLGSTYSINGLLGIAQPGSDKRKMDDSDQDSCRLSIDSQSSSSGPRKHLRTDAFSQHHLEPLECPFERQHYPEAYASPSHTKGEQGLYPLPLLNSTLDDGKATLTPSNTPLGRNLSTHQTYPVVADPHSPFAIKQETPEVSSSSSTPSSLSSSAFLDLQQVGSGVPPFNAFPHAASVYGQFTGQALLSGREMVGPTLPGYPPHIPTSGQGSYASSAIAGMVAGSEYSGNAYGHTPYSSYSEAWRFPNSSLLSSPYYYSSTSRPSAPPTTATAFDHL
Chain of Fatty acid synthase (P49327 whole entry, the tested form may be a part): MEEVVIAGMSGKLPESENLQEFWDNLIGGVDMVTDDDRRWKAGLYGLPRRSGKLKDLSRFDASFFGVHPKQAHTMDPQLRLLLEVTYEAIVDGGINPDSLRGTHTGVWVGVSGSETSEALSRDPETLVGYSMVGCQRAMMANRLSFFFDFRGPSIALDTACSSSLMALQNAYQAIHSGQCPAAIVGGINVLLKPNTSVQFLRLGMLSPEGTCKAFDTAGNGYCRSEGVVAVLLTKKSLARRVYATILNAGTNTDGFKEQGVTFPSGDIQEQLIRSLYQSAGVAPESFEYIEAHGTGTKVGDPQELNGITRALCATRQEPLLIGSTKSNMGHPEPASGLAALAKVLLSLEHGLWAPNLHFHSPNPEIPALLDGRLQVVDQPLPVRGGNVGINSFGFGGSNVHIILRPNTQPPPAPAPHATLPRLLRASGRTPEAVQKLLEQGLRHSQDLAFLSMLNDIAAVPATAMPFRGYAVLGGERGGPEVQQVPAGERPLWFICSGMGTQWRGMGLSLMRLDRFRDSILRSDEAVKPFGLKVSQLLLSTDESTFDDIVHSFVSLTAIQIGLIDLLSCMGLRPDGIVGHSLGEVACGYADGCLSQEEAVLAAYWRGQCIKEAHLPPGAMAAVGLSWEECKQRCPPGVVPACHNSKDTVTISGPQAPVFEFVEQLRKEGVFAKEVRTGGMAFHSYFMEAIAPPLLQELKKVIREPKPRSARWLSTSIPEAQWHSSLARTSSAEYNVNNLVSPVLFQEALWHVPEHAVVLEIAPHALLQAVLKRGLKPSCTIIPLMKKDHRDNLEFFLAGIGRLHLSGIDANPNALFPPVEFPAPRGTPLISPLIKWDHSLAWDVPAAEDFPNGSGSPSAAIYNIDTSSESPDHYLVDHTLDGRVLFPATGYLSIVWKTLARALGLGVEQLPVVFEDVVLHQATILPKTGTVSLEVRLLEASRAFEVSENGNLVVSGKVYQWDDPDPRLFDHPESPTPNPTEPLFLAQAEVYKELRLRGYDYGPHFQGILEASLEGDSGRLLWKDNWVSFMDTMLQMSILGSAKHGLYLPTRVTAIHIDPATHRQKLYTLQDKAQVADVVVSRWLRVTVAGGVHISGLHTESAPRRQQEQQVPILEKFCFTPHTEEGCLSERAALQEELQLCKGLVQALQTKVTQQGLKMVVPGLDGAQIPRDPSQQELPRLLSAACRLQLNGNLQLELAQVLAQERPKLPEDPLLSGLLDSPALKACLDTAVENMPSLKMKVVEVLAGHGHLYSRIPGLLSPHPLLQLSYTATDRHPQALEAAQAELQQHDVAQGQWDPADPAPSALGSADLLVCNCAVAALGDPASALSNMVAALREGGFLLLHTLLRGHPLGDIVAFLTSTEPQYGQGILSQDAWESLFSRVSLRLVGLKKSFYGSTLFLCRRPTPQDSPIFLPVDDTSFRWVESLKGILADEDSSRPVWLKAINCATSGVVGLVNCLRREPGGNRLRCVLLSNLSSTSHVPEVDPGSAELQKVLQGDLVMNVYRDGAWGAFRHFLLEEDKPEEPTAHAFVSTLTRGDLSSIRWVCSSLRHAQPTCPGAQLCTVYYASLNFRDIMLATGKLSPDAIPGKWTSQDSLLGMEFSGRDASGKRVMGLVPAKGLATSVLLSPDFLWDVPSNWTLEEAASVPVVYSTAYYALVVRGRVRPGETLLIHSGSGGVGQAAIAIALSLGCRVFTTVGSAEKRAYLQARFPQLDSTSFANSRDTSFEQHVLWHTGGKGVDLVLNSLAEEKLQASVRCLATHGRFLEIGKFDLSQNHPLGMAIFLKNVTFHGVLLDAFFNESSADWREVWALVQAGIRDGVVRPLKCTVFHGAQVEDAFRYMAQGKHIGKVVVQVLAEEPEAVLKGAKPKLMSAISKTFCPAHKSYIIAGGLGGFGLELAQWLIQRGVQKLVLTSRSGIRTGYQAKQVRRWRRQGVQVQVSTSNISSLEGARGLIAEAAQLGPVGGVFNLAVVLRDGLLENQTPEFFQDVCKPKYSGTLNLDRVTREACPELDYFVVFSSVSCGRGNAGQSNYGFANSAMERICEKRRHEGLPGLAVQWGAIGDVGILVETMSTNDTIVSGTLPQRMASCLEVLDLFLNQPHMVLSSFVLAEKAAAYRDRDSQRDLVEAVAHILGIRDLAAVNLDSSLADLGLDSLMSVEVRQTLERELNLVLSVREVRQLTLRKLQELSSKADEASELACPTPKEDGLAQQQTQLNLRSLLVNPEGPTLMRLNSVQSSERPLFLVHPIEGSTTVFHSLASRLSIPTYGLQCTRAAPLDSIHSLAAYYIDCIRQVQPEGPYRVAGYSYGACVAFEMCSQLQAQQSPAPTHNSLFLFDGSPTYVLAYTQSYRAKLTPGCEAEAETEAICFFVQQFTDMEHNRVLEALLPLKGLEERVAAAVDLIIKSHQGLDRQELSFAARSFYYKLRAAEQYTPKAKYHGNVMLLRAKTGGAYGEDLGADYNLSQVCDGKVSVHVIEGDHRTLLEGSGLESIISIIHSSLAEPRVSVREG
Chain of G-protein coupled receptor 35 (Q9HC97 whole entry): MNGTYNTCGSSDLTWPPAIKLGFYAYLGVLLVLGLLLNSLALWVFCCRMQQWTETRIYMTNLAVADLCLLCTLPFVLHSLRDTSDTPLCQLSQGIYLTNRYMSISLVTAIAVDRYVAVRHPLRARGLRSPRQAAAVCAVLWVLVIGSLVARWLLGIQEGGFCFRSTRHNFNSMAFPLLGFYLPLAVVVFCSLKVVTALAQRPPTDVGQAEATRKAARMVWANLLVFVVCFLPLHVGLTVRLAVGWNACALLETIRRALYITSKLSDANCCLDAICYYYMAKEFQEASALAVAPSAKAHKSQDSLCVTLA
Chain of Beta-galactosidase (Q8VNN2 whole entry): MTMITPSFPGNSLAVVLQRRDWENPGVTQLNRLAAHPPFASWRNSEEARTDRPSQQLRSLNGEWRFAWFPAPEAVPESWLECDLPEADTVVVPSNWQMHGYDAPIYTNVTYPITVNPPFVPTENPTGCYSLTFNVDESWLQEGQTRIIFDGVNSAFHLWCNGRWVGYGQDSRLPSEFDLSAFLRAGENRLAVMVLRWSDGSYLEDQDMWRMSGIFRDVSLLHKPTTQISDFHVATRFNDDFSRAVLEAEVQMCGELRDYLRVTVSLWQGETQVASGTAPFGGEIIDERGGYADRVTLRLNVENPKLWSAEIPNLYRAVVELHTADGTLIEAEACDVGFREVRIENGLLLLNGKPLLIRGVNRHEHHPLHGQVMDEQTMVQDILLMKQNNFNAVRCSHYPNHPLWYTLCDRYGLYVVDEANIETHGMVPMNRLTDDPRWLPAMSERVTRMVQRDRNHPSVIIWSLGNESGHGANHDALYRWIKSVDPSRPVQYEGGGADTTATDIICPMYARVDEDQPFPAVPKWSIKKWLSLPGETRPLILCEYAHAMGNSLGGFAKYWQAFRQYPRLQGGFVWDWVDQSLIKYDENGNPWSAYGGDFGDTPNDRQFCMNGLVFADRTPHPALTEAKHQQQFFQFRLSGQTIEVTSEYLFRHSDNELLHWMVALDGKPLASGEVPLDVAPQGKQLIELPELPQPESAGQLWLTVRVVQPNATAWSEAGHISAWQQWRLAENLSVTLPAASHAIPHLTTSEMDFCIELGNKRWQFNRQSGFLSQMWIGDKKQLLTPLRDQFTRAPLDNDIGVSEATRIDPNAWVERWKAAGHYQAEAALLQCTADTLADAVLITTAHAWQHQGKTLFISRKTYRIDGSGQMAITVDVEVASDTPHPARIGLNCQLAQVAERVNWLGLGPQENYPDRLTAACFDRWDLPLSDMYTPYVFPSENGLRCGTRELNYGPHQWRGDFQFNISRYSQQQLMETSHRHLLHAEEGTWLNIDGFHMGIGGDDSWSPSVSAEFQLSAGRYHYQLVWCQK
Chain of Large T antigen (P03070 whole entry): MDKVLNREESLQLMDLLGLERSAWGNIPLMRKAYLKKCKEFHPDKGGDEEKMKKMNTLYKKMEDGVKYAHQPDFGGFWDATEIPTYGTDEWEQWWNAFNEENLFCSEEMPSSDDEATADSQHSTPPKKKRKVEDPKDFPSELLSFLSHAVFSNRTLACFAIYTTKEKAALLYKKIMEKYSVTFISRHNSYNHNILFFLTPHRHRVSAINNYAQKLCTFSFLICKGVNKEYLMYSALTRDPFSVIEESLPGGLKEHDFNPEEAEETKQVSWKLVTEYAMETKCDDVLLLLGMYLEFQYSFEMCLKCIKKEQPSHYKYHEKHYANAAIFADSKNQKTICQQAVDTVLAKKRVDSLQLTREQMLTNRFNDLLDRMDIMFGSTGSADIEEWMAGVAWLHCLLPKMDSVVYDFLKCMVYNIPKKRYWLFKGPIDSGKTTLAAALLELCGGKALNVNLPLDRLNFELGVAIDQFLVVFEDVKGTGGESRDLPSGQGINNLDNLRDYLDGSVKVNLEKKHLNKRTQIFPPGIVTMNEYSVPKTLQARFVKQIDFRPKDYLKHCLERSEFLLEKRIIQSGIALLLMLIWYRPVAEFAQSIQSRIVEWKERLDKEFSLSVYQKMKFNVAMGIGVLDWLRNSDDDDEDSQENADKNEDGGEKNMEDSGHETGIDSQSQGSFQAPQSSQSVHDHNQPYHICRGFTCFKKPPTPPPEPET

CCC1CCCCN1S(=O)(=O)c1ccc(NC(=O)c2nc(S(C)(=O)=O)ncc2Cl)cc1 (stereo not drawn)
active: IC50 [1] 3.23 µM | EC50 [2] 11.2 µM | EC50 [3] 11.8 µM | EC50 [4] 9.69 µM | EC50 (Streptococcus) 16.5 µM | IC50 (Large T antigen) 44.8 µM | IC50 [5] 5.9 µM | IC50 (CHO) 1.91 µM | IC50 [6] 15.8 µM | AC50 [7] 0.341 µM | AC50 [8] 2.46 µM | IC50 (Fatty acid synthase) 5.75 µM | AC50 (Paired box protein Pax-8) 5.67 µM | AC50 [10] 20.8 µM
inactive: EC50 (Beta-galactosidase) > 40 µM | IC50 [9] > 64.6 µM

CCCC[n+]1ccn(C2=C([N-]S(=O)(=O)c3ccc(Cl)cc3)C(=O)c3ccccc3C2=O)c1
inconclusive: EC50 [11] 85.9 µM

CC(=O)c1cccc2c1N=C(c1[nH]c3ccccc3c1O)C2=O
active: EC50 [12] 3.8 µM
